Measurements from patent publication US8575306B2, “Target and method for inhibition of bacterial RNA polymerase” (Rutgers, The State University of New Jersey, priority 2002, dated 2013).
Entries after “also recorded” stand apart in the source; their conditions may differ. Where a SMILES comes first, the peptide text is derived from it.

Experiments:
[1] = target: T1, [Ile931]β′-RNAP holoenzyme (Escherichia coli, UniProt P0A8T7, T931I); experiment: Transcription assays with MccJ25-resistant RNAP derivative; assay type: biochemical
T1 construct: hexahistidine (C); made in house; host or cells: E. coli strain 397c (rpoC ts397) transformed with a pRL663 derivative
Protocol: (§1) MccJ25 interferes with a process common to both abortive initiation and elongation—i.e., NTP uptake, phosphodiester-bond formation, or translocation.
RNAP holoenzyme was prepared from, strain XE54/pREII-NHα (thi pREII-NHα; Niu et al., (1996) Cell 87, 1123-1134) using metal-ion affinity chromatography and ion-exchange chromatography (Id.). (Ile931]β′-RNAP holoenzyme was prepared from strain 397c [rpoC^ts397 argG thi lac λcI857h80St68dlac^+); Christie et al., (1996) J. Bacteriol. 178, 6991-6993) transformed with a pRL663 derivative encoding [Ile931]β′-RNAP (constructed using site-directed mutagenesis (QuikChange Site-Directed Mutagenesis Kit; Stratagene, Inc).) using identical procedures. Yields typically were 6 mg. Purities typically were >95%.
Following 15 min at 37° C., 0.5 μl 1 mg/ml heparin, was added, and, following a further 2 min at 37° C., RNA synthesis was initiated by addition of 2 μl 5 mM ApA and 125 μM (or 250 jiM, 500 μM, and 1 mM) each of [α-^32P]UTP (0.6 Bq/fmol), ATP, CTP, GTP. […] Products were heated 10 min at 90° C., resolved by urea-PAGE (Sambrook and Russell (2001). Molecular Cloning: A Laboratory Manual (Cold Spring Harbor, N.Y., Cold Spring Harbor Laboratory)), and quantified using an x/y storage-phosphor scanner (Storm 860; Molecular Dynamics, Inc.). […]

RNAP holoenzyme [2] = target: T2, RNAP holoenzyme (Escherichia coli, UniProt P0A8T7); experiment: Electrophoretic mobility shift assays (open-complex formation, lacUV5 promoter); assay type: biochemical; conditions: MccJ25 at 1, 10, or 100 μM
T2 construct: RNAP holoenzyme was prepared from, strain XE54/pREII-NHα; made in house; host or cells: E. coli strain XE54/pREII-NHα
Protocol: Following 15 min at 37° C., 0.5 μl 1 mg/ml heparin was added (to disrupt non-specific complexes (Cech and McClure (1980) Biochem. 19, 2440-2447)), and, following a further 2 min at 37° C., reaction mixtures were applied to 5% polyacrylamide slab gels (30:1 acrylamide/bisacrylamide; 6×9×0.1 cm) and electrophoresed in 90 mM Tris-borate (pH 8.0) and 0.2 mM EDTA (20 V/cm; 30 mm at 37° C.) and analyzed using an x/y fluorescence scanner (Storm 860; Molecular Dynamics, Inc.).

RNAP = RNAP (Escherichia coli, UniProt P0A8T7); conditions: crude cell extracts; Delgado et al. (2001); cited from earlier work
RNAP holoenzyme [3] = target: T2, RNAP holoenzyme; experiment: Transcription assays (abortive initiation and elongation, lacUV5 promoter); assay type: biochemical
Protocol: as §1
Following 15 min at 37° C., 0.5 μl 1 mg/ml heparin, was added, and, following a further 2 min at 37° C., RNA synthesis was initiated by addition of 2 μl 5 mM ApA and 125 μM (or 250 jiM, 500 μM, and 1 mM) each of [α-^32P]UTP (0.6 Bq/fmol), ATP, CTP, GTP. Following 5 min at 37° C., reactions were terminated by addition of 10 μl 80% formamide, 10 mM EDTA, 0.04% bromophenol blue, and 0.04% xylene cyanol. Products were heated 10 min at 90° C., resolved by urea-PAGE (Sambrook and Russell (2001). Molecular Cloning: A Laboratory Manual (Cold Spring Harbor, N.Y., Cold Spring Harbor Laboratory)), and quantified using an x/y storage-phosphor scanner (Storm 860; Molecular Dynamics, Inc.). Data were fit to full-competitive, partial-competitive, full-noncompetitive, partial-noncompetitive, full-uncompetitive, partial-uncompetitive, full-mixed, and partial-mixed models of inhibition using the Fit-To-Model feature of the SigmaPlot Enzyme Kinetics Module (SPSS, Inc.).

[4] = MccJ25 at 1, 10, or 100 μM, 5 min at 37° C.

Structure (SMILES): CC[C@H](C)[C@H](NC(=O)CNC(=O)[C@@H](NC(=O)[C@H](Cc1ccccc1)NC(=O)[C@H](Cc1ccc(O)cc1)NC(=O)[C@@H]1CCC(=O)NCC(=O)NCC(=O)N[C@@H](C)C(=O)NCC(=O)N[C@@H](Cc2c[nH]cn2)C(=O)N[C@@H](C(C)C)C(=O)N2CCC[C@H]2C(=O)N1)C(C)C)C(=O)NCC(=O)N[C@H](C(=O)N1CCC[C@H]1C(=O)N[C@H](C(=O)N[C@@H](CO)C(=O)N[C@@H](Cc1ccccc1)C(=O)N[C@@H](Cc1ccc(O)cc1)C(=O)NCC(=O)O)[C@@H](C)CC)[C@@H](C)O [MccJ25] (HELM PEPTIDE1{G.G.A.G.H.V.P.E.Y.F.V.G.I.G.T.P.I.S.F.Y.G}$PEPTIDE1,PEPTIDE1,1:R1-8:R3$$$V2.0)
- inhibition of transcription upon substitution of residue 931 of the RNAP β′ subunit (Thr931→Ile) [1]: overcome completely
- effect on formation of open complex (RNAP holoenzyme [2]): no effect; also recorded: does not inhibit
- inhibition of RNAP-dependent transcription (RNAP): inhibits
- inhibition of formation of abortive products (7 nt and 8 nt RNA species) (RNAP holoenzyme [3]; [4]): inhibits
- inhibition of formation of the full-length product (26 nt RNA species) (RNAP holoenzyme [3]; [4]): inhibits
- NTP-concentration dependence of inhibition (RNAP holoenzyme [3]; NTP 12.5, 25, 50 and 100 μM): NTP-concentration-dependent
- mode of inhibition (RNAP holoenzyme [3]; with respect to NTPs, 7-mer and 8-mer abortive products): partial competitive
